Source: paper PMC5896380, “Selective imaging of cathepsin L in breast cancer by fluorescent activity-based probes” (Chemical Science, 2018)
Non-standard residues stand in square brackets, D forms with d. *: point of attachment. Phe(F5) = N[C@@H](Cc1c(F)c(F)c(F)c(F)c1F)C(=O)O; Phe(3,4-F2) = N[C@@H](Cc1ccc(F)c(F)c1)C(=O)O; Phe(2-Cl) = N[C@@H](Cc1ccccc1Cl)C(=O)O; Phe(3-F) = N[C@@H](Cc1cccc(F)c1)C(=O)O; Phe(4-F) = N[C@@H](Cc1ccc(F)cc1)C(=O)O; ACC = NC(=O)Cc1cc(=O)oc2cc(N*)ccc12; hArg = N=C(N)NCCCC[C@H](N)C(=O)O; ClZ = O=C(OCc1ccccc1Cl)*; Mob = COc1ccc(C*)cc1; Meb = Cc1ccc(C*)cc1; OBn = c1ccc(CO*)cc1; Bn = c1ccc(C*)cc1

Experiments:
Type in all cases: biochemical
cathepsin B = target: T1, cathepsin B (Homo sapiens, UniProt P07858); experiment: Kinetic parameters of ACC substrates with cathepsin B; settings: for kcat/KM Cath-B: Fig. 5B, pH 5.5, 37 °C, cathepsin B 4–15 nM, triplicate, SD below 15%
T1 construct: made in house
Description: (§1) All kinetic experiments were performed using fMax (Molecular Devices) and CLARIOStar (BMG LABTECH) spectrofluorimeters operating in kinetic mode using 96-well plates. ACC-labeled substrates were screened using 355 nm and 460 nm wavelengths (excitation and emission, respectively). […] The buffer was prepared at room temperature and the enzyme kinetic studies were performed at 37 °C.
(§2) Classic substrate velocity plots were analyzed according to Michaelis–Menten kinetics and a detailed protocol for the determination of kinetic parameters for ACC-tagged substrates is found elsewhere.[56] […] Experiments were repeated at least three times and results are presented as an average. The SDs were below 15%.

cathepsin V = target: T2, cathepsin V (Homo sapiens, UniProt O60911); experiment: Kinetic parameters of ACC substrates with cathepsin V; settings: for kcat/KM Cath-V: Fig. 5B, pH 5.5, 37 °C, cathepsin V 10–20 nM, triplicate, SD below 15%
T2 construct: made in house
Description: as §1, §2

cathepsin K = target: T3, cathepsin K (Homo sapiens, UniProt P43235); experiment: Kinetic parameters of ACC substrates with cathepsin K; settings: for kcat/KM Cath-K: Fig. 5B, pH 5.5, 37 °C, cathepsin K 5–20 nM, triplicate, SD below 15%
T3 construct: made in house
T3 sequence (P43235 115-329): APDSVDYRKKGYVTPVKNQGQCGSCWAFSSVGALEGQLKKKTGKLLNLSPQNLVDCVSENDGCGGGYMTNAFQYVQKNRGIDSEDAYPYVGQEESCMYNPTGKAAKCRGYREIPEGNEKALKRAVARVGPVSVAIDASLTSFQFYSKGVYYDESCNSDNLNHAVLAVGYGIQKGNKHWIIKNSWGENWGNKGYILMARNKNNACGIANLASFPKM
Description: as §1, §2

cathepsin L = target: T4, cathepsin L (Homo sapiens, UniProt P07711); experiment: Kinetic parameters of ACC substrates with cathepsin L; settings: for kcat/KM Cath-L: Fig. 5B, pH 5.5, 37 °C, cathepsin L 0.1–0.5 nM, triplicate, SD below 15%
T4 construct: made in house
Description: as §1, §2

cathepsin S = target: T5, cathepsin S (Homo sapiens, UniProt P25774); experiment: Kinetic parameters of ACC substrates with cathepsin S; settings: for kcat/KM Cath-S: Fig. 5B, pH 5.5, 37 °C, cathepsin S 5–20 nM, triplicate, SD below 15%
T5 construct: made in house
Description: as §1, §2

[1] = Table S7, four independent experiments, S.D. below 15%

T5 sequence (P25774 115-331): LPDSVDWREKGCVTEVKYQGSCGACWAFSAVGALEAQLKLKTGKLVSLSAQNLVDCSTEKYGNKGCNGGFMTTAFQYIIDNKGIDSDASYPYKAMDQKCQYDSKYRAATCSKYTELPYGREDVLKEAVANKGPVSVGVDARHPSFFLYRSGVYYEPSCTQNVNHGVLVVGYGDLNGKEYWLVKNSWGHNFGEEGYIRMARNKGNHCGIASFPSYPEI
T4 sequence (P07711 114-333): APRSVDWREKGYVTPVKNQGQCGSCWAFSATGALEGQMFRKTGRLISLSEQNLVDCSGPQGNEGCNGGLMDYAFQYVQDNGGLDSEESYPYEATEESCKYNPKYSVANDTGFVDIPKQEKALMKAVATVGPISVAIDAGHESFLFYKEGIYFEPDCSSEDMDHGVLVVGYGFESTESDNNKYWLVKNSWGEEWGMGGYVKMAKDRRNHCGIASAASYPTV
T2 sequence (O60911 114-334): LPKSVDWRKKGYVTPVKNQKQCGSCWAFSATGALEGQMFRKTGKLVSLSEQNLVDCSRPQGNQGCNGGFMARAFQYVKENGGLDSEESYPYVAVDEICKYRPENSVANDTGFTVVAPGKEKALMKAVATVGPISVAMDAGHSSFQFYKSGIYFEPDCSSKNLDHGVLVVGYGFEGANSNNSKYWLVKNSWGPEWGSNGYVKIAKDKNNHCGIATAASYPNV

Row | Substance | kcat/KM Cath-B (cathepsin B) | kcat/KM Cath-V (cathepsin V) | kcat/KM Cath-K (cathepsin K) | kcat/KM Cath-L (cathepsin L) | kcat/KM Cath-S (cathepsin S) | other results
1 | Ac-H[dV][Phe(2-Cl)]R-{ACC} (SMILES CC(=O)N[C@@H](Cc1c[nH]cn1)C(=O)N[C@@H](C(=O)N[C@@H](Cc1ccccc1Cl)C(=O)N[C@@H](CCCNC(=N)N)C(=O)Nc1ccc2c(CC(N)=O)cc(=O)oc2c1)C(C)C) | 1,360 M^-1s^-1 | 11,600 M^-1s^-1 | 13,000 M^-1s^-1 | 5,689,000 M^-1s^-1 | 2,760 M^-1s^-1 | –
2 | Ac-H[dV][Phe(3,4-F2)]R-{ACC} (SMILES CC(=O)N[C@@H](Cc1c[nH]cn1)C(=O)N[C@@H](C(=O)N[C@@H](Cc1ccc(F)c(F)c1)C(=O)N[C@@H](CCCNC(=N)N)C(=O)Nc1ccc2c(CC(N)=O)cc(=O)oc2c1)C(C)C) | 2,520 M^-1s^-1 | 10,100 M^-1s^-1 | 1,010 M^-1s^-1 | 6,031,000 M^-1s^-1 | 580 M⁻¹ s⁻¹ | –
3 | Ac-H[dV][Phe(3-F)]R-{ACC} (SMILES CC(=O)N[C@@H](Cc1c[nH]cn1)C(=O)N[C@@H](C(=O)N[C@@H](Cc1cccc(F)c1)C(=O)N[C@@H](CCCNC(=N)N)C(=O)Nc1ccc2c(CC(N)=O)cc(=O)oc2c1)C(C)C) | 6,280 M^-1s^-1 | 12,600 M^-1s^-1 | 5,700 M^-1s^-1 | 8,432,000 M^-1s^-1 | 814 M⁻¹ s⁻¹ | –
4 | Ac-H[dV][Phe(4-F)]R-{ACC} (SMILES CC(=O)N[C@@H](Cc1c[nH]cn1)C(=O)N[C@@H](C(=O)N[C@@H](Cc1ccc(F)cc1)C(=O)N[C@@H](CCCNC(=N)N)C(=O)Nc1ccc2c(CC(N)=O)cc(=O)oc2c1)C(C)C) | 3,100 M^-1s^-1 | 14,550 M^-1s^-1 | 2,580 M^-1s^-1 | 6,991,000 M^-1s^-1 | 1,800 M^-1s^-1 | –
5 | Ac-H[dV][Phe(F5)]C(Bn)-{ACC} (SMILES CC(=O)N[C@@H](Cc1c[nH]cn1)C(=O)N[C@@H](C(=O)N[C@@H](Cc1c(F)c(F)c(F)c(F)c1F)C(=O)N[C@@H](CSCc1ccccc1)C(=O)Nc1ccc2c(CC(N)=O)cc(=O)oc2c1)C(C)C) | 1,370 M^-1s^-1 | 1,250 M^-1s^-1 | 190 M⁻¹ s⁻¹ | 732,900 M^-1s^-1 | < 10 M⁻¹ s⁻¹ | kcat Cat B (cathepsin B; [1]): 0.0115 s⁻¹; kcat/KM Cat B (cathepsin B; [1]): 1,370 M-1s-1; Km (cathepsin B; Table S7, four independent experiments, S.D. below 15%, read-out: KM Cat B): 8.19 µM; kcat Cat V (cathepsin V; [1]): 0.00971 s⁻¹; kcat/KM Cat V (cathepsin V; [1]): 1,250 M-1s-1; Km (cathepsin V; Table S7, four independent experiments, S.D. below 15%, read-out: KM Cat V): 7.76 µM; kcat Cat K (cathepsin K; [1]): 0.00221 s⁻¹; kcat/KM Cat K (cathepsin K; [1]): 190 M⁻¹ s⁻¹; Km (cathepsin K; Table S7, four independent experiments, S.D. below 15%, read-out: KM Cat K): 11.5 µM; kcat Cat L (cathepsin L; [1]): 4.21 s⁻¹; kcat/KM Cat L (cathepsin L; [1]): 732,900 M-1s-1; Km (cathepsin L; Table S7, four independent experiments, S.D. below 15%, read-out: KM Cat L): 5.67 µM; kcat/KM Cat S (cathepsin S; [1]): < 10 M⁻¹ s⁻¹
6 | Ac-H[dV][Phe(F5)]C(Meb)-{ACC} (SMILES CC(=O)N[C@@H](Cc1c[nH]cn1)C(=O)N[C@@H](C(=O)N[C@@H](Cc1c(F)c(F)c(F)c(F)c1F)C(=O)N[C@@H](CSCc1ccc(C)cc1)C(=O)Nc1ccc2c(CC(N)=O)cc(=O)oc2c1)C(C)C) | 2,290 M^-1s^-1 | 1,740 M^-1s^-1 | < 10 M⁻¹ s⁻¹ | 1,476,000 M^-1s^-1 | < 10 M⁻¹ s⁻¹ | –
7 | Ac-H[dV][Phe(F5)]C(Mob)-{ACC} (SMILES COc1ccc(CSC[C@H](NC(=O)[C@H](Cc2c(F)c(F)c(F)c(F)c2F)NC(=O)[C@H](NC(=O)[C@H](Cc2c[nH]cn2)NC(C)=O)C(C)C)C(=O)Nc2ccc3c(CC(N)=O)cc(=O)oc3c2)cc1) | 3,800 M^-1s^-1 | 2,070 M^-1s^-1 | < 10 M⁻¹ s⁻¹ | 2,135,000 M^-1s^-1 | < 10 M⁻¹ s⁻¹ | –
8 | Ac-H[dV][Phe(F5)]E(OBn)-{ACC} (SMILES CC(=O)N[C@@H](Cc1c[nH]cn1)C(=O)N[C@@H](C(=O)N[C@@H](Cc1c(F)c(F)c(F)c(F)c1F)C(=O)N[C@@H](CCC(=O)OCc1ccccc1)C(=O)Nc1ccc2c(CC(N)=O)cc(=O)oc2c1)C(C)C) | 941 M⁻¹ s⁻¹ | 710 M⁻¹ s⁻¹ | 626 M⁻¹ s⁻¹ | 599,800 M^-1s^-1 | 1,110 M^-1s^-1 | –
9 | Ac-H[dV][Phe(F5)]K(ClZ)-{ACC} (SMILES CC(=O)N[C@@H](Cc1c[nH]cn1)C(=O)N[C@@H](C(=O)N[C@@H](Cc1c(F)c(F)c(F)c(F)c1F)C(=O)N[C@@H](CCCCNC(=O)OCc1ccccc1Cl)C(=O)Nc1ccc2c(CC(N)=O)cc(=O)oc2c1)C(C)C) | 1,320 M^-1s^-1 | 329 M⁻¹ s⁻¹ | 361 M⁻¹ s⁻¹ | 686,700 M^-1s^-1 | < 10 M⁻¹ s⁻¹ | –
10 | Ac-H[dV][Phe(F5)]L-{ACC} (SMILES CC(=O)N[C@@H](Cc1c[nH]cn1)C(=O)N[C@@H](C(=O)N[C@@H](Cc1c(F)c(F)c(F)c(F)c1F)C(=O)N[C@@H](CC(C)C)C(=O)Nc1ccc2c(CC(N)=O)cc(=O)oc2c1)C(C)C) | 684 M⁻¹ s⁻¹ | 325 M⁻¹ s⁻¹ | 646 M⁻¹ s⁻¹ | 135,600 M^-1s^-1 | 912 M⁻¹ s⁻¹ | –
11 | Ac-H[dV][Phe(F5)][hArg]-{ACC} (SMILES CC(=O)N[C@@H](Cc1c[nH]cn1)C(=O)N[C@@H](C(=O)N[C@@H](Cc1c(F)c(F)c(F)c(F)c1F)C(=O)N[C@@H](CCCCNC(=N)N)C(=O)Nc1ccc2c(CC(N)=O)cc(=O)oc2c1)C(C)C) | 187 M⁻¹ s⁻¹ | 175 M⁻¹ s⁻¹ | < 10 M⁻¹ s⁻¹ | 317,900 M^-1s^-1 | < 10 M⁻¹ s⁻¹ | –
12 | Ac-His-DVal-Phe(F5)-Lys-ACC | < 10 M⁻¹ s⁻¹ | < 10 M⁻¹ s⁻¹ | < 10 M⁻¹ s⁻¹ | 231,000 M^-1s^-1 | < 10 M⁻¹ s⁻¹ | –
13 | Ac-His-DVal-Phe(F5)-Nle(OBzl)-ACC | 2,500 M^-1s^-1 | 3,820 M^-1s^-1 | 906 M⁻¹ s⁻¹ | 2,290,000 M^-1s^-1 | 508 M⁻¹ s⁻¹ | –
14 | Ac-R[dV][Phe(F5)]R-{ACC} (SMILES CC(=O)N[C@@H](CCCNC(=N)N)C(=O)N[C@@H](C(=O)N[C@@H](Cc1c(F)c(F)c(F)c(F)c1F)C(=O)N[C@@H](CCCNC(=N)N)C(=O)Nc1ccc2c(CC(N)=O)cc(=O)oc2c1)C(C)C) | 101 M⁻¹ s⁻¹ | 333 M⁻¹ s⁻¹ | < 10 M⁻¹ s⁻¹ | 387,300 M^-1s^-1 | < 10 M⁻¹ s⁻¹ | –
15 | Ac-[hArg][dV][Phe(F5)]R-{ACC} (SMILES CC(=O)N[C@@H](CCCCNC(=N)N)C(=O)N[C@@H](C(=O)N[C@@H](Cc1c(F)c(F)c(F)c(F)c1F)C(=O)N[C@@H](CCCNC(=N)N)C(=O)Nc1ccc2c(CC(N)=O)cc(=O)oc2c1)C(C)C) | 242 M⁻¹ s⁻¹ | 647 M⁻¹ s⁻¹ | 96 M⁻¹ s⁻¹ | 454,800 M^-1s^-1 | < 10 M⁻¹ s⁻¹ | –
